# Literature values as cited in patent publication US20070032554A1, “Treatment of stuttering and other communication disorders with norepinephrine reuptake inhibitors” (ELILILLY AND COMPANY a Corporation, priority 2003, published 2007).
# Conditions: for side effects / tolerability: literature reports, treatment of stuttering; for effect on stuttering: literature reports in persons who stutter
Structure (SMILES),side effects / tolerability,effect on stuttering
CN[C@H]1CC[C@@H](c2ccc(Cl)c(Cl)c2)c2ccccc21 [Sertraline],a number of undesirable side effects,–
Fc1ccc([C@@H]2CCNC[C@H]2COc2ccc3c(c2)OCO3)cc1 [Paroxetine],a number of undesirable side effects,–
Cc1cc2c(s1)Nc1ccccc1N=C2N1CCN(C)CC1 [Olanzapine],mostly limited to slight weight gain and drowsiness,–
Cc1nc2n(c(=O)c1CCN1CCC(c3noc4cc(F)ccc34)CC1)CCCC2 [risperidone],sedation was common,may be effective
O=C(CCCN1CCC(O)(c2ccc(Cl)cc2)CC1)c1ccc(F)cc1 [haloperidol],not well tolerated,reduce the symptoms of stuttering
